According to paper PMC7570844, “Skin Damages—Structure Activity Relationship of Benzimidazole Derivatives Bearing a 5-Membered Ring System” (Molecules, 2020):
In brackets after ≈: the same amount, converted by molar mass. Several values for one entry are separate records, joined by “and”; a condition that tells them apart may be missing. Equal entries are not always repeated. Where two headings read alike, the source gives them in different places.

What was measured:
Microsporum gypseum = experiment: Antidermatophyte plaque growth inhibition; type: cell-based; conditions: Nannizzia gypsea; for inhibition at 100 µg/mL: read-out: Percent growth inhibition
Microsporum canis = experiment: Antidermatophyte plaque growth inhibition; type: cell-based; conditions: for inhibition at 100 µg/mL: read-out: Percent growth inhibition
[1] = test system: Trichophyton mentagrophytes; experiment: Antidermatophyte plaque growth inhibition; type: cell-based; conditions: for inhibition at 100 µg/mL: read-out: Percent growth inhibition
Trichophyton tonsurans = experiment: Antidermatophyte plaque growth inhibition; type: cell-based; conditions: for inhibition at 100 µg/mL: read-out: Percent growth inhibition
Epidermophyton floccosum = experiment: Antidermatophyte plaque growth inhibition; type: cell-based; conditions: for inhibition at 100 µg/mL: read-out: Percent growth inhibition
[2] = test system: M. gypseum, M. canis, T. mentagrophytes, T. tonsurans and E. floccosum; experiment: Antidermatophyte activity, all five dermatophytes taken together; type: cell-based; conditions: for inhibition at 100 µg/mL: read-out: Percentage of growth inhibition over the five dermatophytes
[3] = test system: herpes simplex virus-1 (KOS); experiment: Antiviral activity in HEL cell cultures (CPE, MTS); type: cell-based; conditions: Human alphaherpesvirus 1, HEL cells
[4] = test system: herpes simplex virus-2 (G); experiment: Antiviral activity in HEL cell cultures (CPE, MTS); type: cell-based; conditions: Human alphaherpesvirus 2; Herpes simplex virus-2, HEL cells
[5] = test system: herpes simplex virus-1 TK-KOS ACVr; experiment: microbe, parasite or virus in culture; type: cell-based; conditions: Human alphaherpesvirus 1, HEL, read-out: Antiviral EC50
vaccinia virus = experiment: microbe, parasite or virus in culture; type: cell-based; conditions: Orthopoxvirus vaccinia, HEL, read-out: Antiviral EC50
Adeno virus-2 = experiment: Antiviral activity in HEL cell cultures (CPE, MTS); type: cell-based; conditions: Adeno virus-2, HEL cells
Human Coronavirus (229E) = experiment: microbe, parasite or virus in culture; type: cell-based; conditions: HEL, read-out: Antiviral EC50
[6] = test system: vesicular stomatitis virus; experiment: microbe, parasite or virus in culture; type: cell-based; conditions: HeLa, read-out: Antiviral EC50
Coxsackie virus B4 = experiment: Antiviral activity in HeLa cell cultures (CPE, MTS); type: cell-based; conditions: Enterovirus B; Coxsackie virus B4, HeLa cells
[7] = test system: Respiratory syncytial virus; experiment: microbe, parasite or virus in culture; type: cell-based; conditions: human respiratory syncytial virus, HeLa cells, read-out: Antiviral EC50
[8] = test system: human embryonic lung (HEL) cell cultures
HeLa cell cultures = conditions: human
[9] = DPPH radical scavenging test; conditions: mean ± SEM; for DPPH (% Inhibition): tested at 1 mg/mL
[10] = test system: human T-lymphocyte cells (CEM); experiment: Cell proliferation inhibition
[11] = test system: human cervical carcinoma cells (HeLa); experiment: Cell proliferation inhibition
[12] = test system: human pancreatic carcinoma cells (Mia Paca-2); experiment: Cell proliferation inhibition
[13] = test system: human melanoma cells (SK-Mel 5); experiment: Cell proliferation inhibition
[14] = Ferric reducing antioxidant power (FRAP) test; conditions: mean ± SEM
[15] = test system: Candida albicans (ATCC 10231); experiment: Anti-Candida albicans broth microdilution MIC; conditions: Candida albicans, ATCC10231, 24 h
[16] = test system: HEK293T (Normal Kidney Epithelial Cells); experiment: Cell proliferation inhibition, non-cancer control cells; conditions: Homo sapiens, HEK-293T
[17] = UV filtering parameters of compounds in solution (MeOH, 290-400 nm)
[18] = UV filtering parameters of cosmetic formulation on PMMA plates (modified Diffey-Robson); type: physicochemical
[19] = Photostability of formulations, solar simulator; conditions: formulation on PMMA plates
[20] = M. gypseum, 100 µg/mL, '+' has no key
[21] = M. canis, 100 µg/mL, '+' has no key
[22] = T. mentagrophytes, 100 µg/mL, '+' has no key
[23] = T. tonsurans, 100 µg/mL, '+' has no key
[24] = E. floccosum, 100 µg/mL, '+' has no key
[25] = 100 µg/mL, all five dermatophytes
[26] = after solar simulator irradiation

O=S(=O)(O)c1ccc2[nH]c(-c3ccc[nH]3)nc2c1 [Compound 7, 2-(1H-pyrrol-2-yl)-1H-benzimidazole-5-sulfonic Acid]
inhibition at 100 µg/mL (Microsporum gypseum; [20]): 73 ± 3.67% | inhibition at 100 µg/mL (Microsporum canis; [21]): 72.1 ± 7.51% | inhibition at 100 µg/mL [1, 22]: 69 ± 1.84% | inhibition at 100 µg/mL (Trichophyton tonsurans; [23]): 56.6 ± 4.04% | inhibition at 100 µg/mL (Epidermophyton floccosum; [24]): 52.5 ± 6.58% | inhibition at 100 µg/mL [2, 25]: 50 to 79% | EC50 [3]: > 100 µM | EC50 [4]: > 100 µM | EC50 [5]: > 100 µM | EC50 (vaccinia virus): > 100 µM | EC50 (Adeno virus-2): > 100 µM | EC50 (Human Coronavirus (229E)): > 100 µM | EC50 [6]: > 100 µM | EC50 (Coxsackie virus B4): > 100 µM | EC50 [7]: > 100 µM | melting point: > 250 °C | Cytotoxic concentration [8]: > 100 µM | Cytotoxic concentration (HeLa cell cultures): > 100 µM | DPPH IC50 [9]: 1093.09 ± 8.65 µg/mL | IC50 [10]: 31 ± 21 µM | IC50 [11]: > 100 µM | IC50 [12]: 28 ± 10 µM | IC50 [13]: > 100 µM | FRAP [14]: 239.91 ± 1.79 µmolTE/g | MIC [15]: 64 µg/mL (≈ 243 µM) | IC50 [16]: 67 ± 47 µM | SPF [17]: 5.43±0.39 | UVA/UVB [17]: 0.2 | UVAPF [17]: 1.22±0.03 | λc (critical wavelength) [17]: 345 nm

O=S(=O)(O)c1ccc2[nH]c(-c3cccs3)nc2c1 [Compound 9, 2-(thiophen-2-yl)-1H-benzimidazole-5-sulfonic Acid]
inhibition at 100 µg/mL (Microsporum gypseum; [20]): 59.8 ± 6.12% | inhibition at 100 µg/mL (Microsporum canis; [21]): 65.9 ± 3.21% | inhibition at 100 µg/mL [1, 22]: 57.3 ± 1.09% | inhibition at 100 µg/mL (Trichophyton tonsurans; [23]): 50.8 ± 2.11% | inhibition at 100 µg/mL (Epidermophyton floccosum; [24]): 50 ± 3.26% | inhibition at 100 µg/mL [2, 25]: 50 to 79% | EC50 [3]: > 100 µM | EC50 [4]: > 100 µM | EC50 [5]: > 100 µM | EC50 (vaccinia virus): > 100 µM | EC50 (Adeno virus-2): > 100 µM | EC50 (Human Coronavirus (229E)): > 100 µM | EC50 [6]: > 100 µM | EC50 (Coxsackie virus B4): > 100 µM | EC50 [7]: > 100 µM | melting point: > 250 °C | Cytotoxic concentration [8]: > 100 µM | Cytotoxic concentration (HeLa cell cultures): > 100 µM | DPPH (% Inhibition) [9]: 12.52 ± 0.88% | IC50 [10]: 34 ± 2 µM | IC50 [11]: > 100 µM | IC50 [12]: 43 ± 14 µM | IC50 [13]: > 100 µM | FRAP [14]: 82.16 ± 0.22 µmolTE/g | MIC [15]: 64 µg/mL (≈ 228 µM) | IC50 [16]: > 100 µM | SPF [17]: 4.72±0.17 | UVA/UVB [17]: 0.48 | UVAPF [17]: 1.43±0.09 | λc (critical wavelength) [17]: 339 nm

c1coc(-c2nc3ccccc3[nH]2)c1 [Compound 11, 2-(furan-2-yl)-1H-benzimidazole]
SPF ([18]; 1% in formulation): 6.84 | UVA/UVB ([18]; 1% in formulation): 0.69 | UVAPF ([18]; 1% in formulation): 1.94 | λc ([18]; 1% in formulation): 368 nm | SPF ([18]; 2% in formulation): 10.39 | UVA/UVB ([18]; 2% in formulation): 0.13 | UVAPF ([18]; 2% in formulation): 1.53 | λc ([18]; 2% in formulation): 366 nm | SPF ([18]; 3% in formulation): 11.15 | UVA/UVB ([18]; 3% in formulation): 0.18 | UVAPF ([18]; 3% in formulation): 1.82 | λc ([18]; 3% in formulation): 371 nm | IC50 (Microsporum gypseum): 1.54 ± 0.02 µg/mL (≈ 8.36 µM) | inhibition at 100 µg/mL (Microsporum gypseum): 99 ± 0.28% | IC50 (Microsporum canis): 1.58 ± 0.06 µg/mL (≈ 8.58 µM) | inhibition at 100 µg/mL (Microsporum canis): 98.3 ± 2.03% | IC50 [1]: 1.61 ± 0.1 µg/mL (≈ 8.74 µM) | inhibition at 100 µg/mL [1]: 97.2 ± 4.53% | IC50 (Trichophyton tonsurans): 1.89 ± 0.22 µg/mL (≈ 10.3 µM) | inhibition at 100 µg/mL (Trichophyton tonsurans): 94.7 ± 5.63% | IC50 (Epidermophyton floccosum): 2.44 ± 0.05 µg/mL (≈ 13.2 µM) | inhibition at 100 µg/mL (Epidermophyton floccosum): 97.9 ± 4.23% | Activity on dermatophytes (in words) ([2]; 100 µg/mL): fungicide activity | IC50 ([2]; read-out: IC50 range over the five dermatophytes): 0.97 to 3.8 µg/mL (≈ 5.27 to 20.6 µM) | inhibition at 100 µg/mL [2]: ~100% | EC50 [3]: > 100 µM | EC50 [4]: > 100 µM | EC50 [5]: > 100 µM | EC50 (vaccinia virus): > 100 µM | EC50 (Adeno virus-2): > 100 µM | EC50 (Human Coronavirus (229E)): > 100 µM | EC50 [6]: > 100 µM | EC50 (Coxsackie virus B4): > 100 µM | EC50 [7]: > 100 µM | Cytotoxic concentration [8]: > 100 µM | Cytotoxic concentration (HeLa cell cultures): > 100 µM | DPPH (% Inhibition) [9]: 15.46 ± 0.98% | IC50 [10]: > 100 µM | IC50 [11]: > 100 µM | IC50 [12]: > 100 µM | IC50 [13]: > 100 µM | FRAP [14]: 4462.64 µmolTE/g and 4462.64 ± 18.29 µmolTE/g | % SPFeff (residual in vitro SPF after irradiation) [19, 26]: less than 80% | % UVA-PFeff (residual UVA-PF after irradiation) [19, 26]: less than 80% | Photostability (in words) ([19]; irradiated with solar simulator, photostable if % SPF and % PF-UVA at least 80%): photoinstable | IC50 [16]: > 100 µM | SPF [17]: 20.06±3.04 | UVA/UVB [17]: 0.3 | UVAPF [17]: 1.05±0.06 | λc (critical wavelength) [17]: 333 nm
